Experimental data from a melting point compilation (Tetko et al.; mined from patent text by program, amines drawn as free bases though some values may be those of a salt).

Compound | melting point [°C]
CC1(CSc2ccc(Cl)cc2)COC2(CCCCCCCCCCC2)OO1 (stereo not given) | 93 to 94
O=C1OC(CCCN2CCN(c3ccccn3)CC2)CN1c1ccccc1 (stereo not given) | 123 to 125
CCC(c1oc2ccccc2c(=O)c1-c1cccc(F)c1)n1cnc2c(N)ncnc21 (stereo not given) | 102 to 107
CC1(C)CCc2c(-c3ccoc3)nc3sc4c(NCCc5c[nH]cn5)ncnc4c3c2C1 | 265 to 267
S=C1CN=C(c2ccc(Cl)cc2)c2cc(I)ccc2N1 | 260 to 262
CCS(=O)(=O)c1ccc(-c2cnn(-c3cccc(Cl)c3)c(=O)c2C2CCCCC2)cc1 | 85 to 90
C=CCOc1ncc(F)c(C2(C(=O)NN)C=CC=C(C)C2)n1 (stereo not given) | 181 to 185
Cn1nnc(Cc2ccc3c(c2)c(C2=CCN(CCN4CCNC4=O)CC2)cn3-c2ccc(F)cc2)n1 | 129 to 131
CS(=O)(=O)c1ccc(N2CC=C(N3CCCC3)CC2)cc1 | 141 to 143
CCOC(=O)C1CN(c2ccc(OC)cc2)CC1=O (stereo not given) | 58 to 60
CCCC(CCC)C(=O)O[C@H]1CCC=C2C=C[C@H](C)[C@H](CC[C@@H]3C[C@@H](O)CC(=O)O3)[C@H]21 | 92 to 94
CC[C@@H](CO)[C@](O)(Cn1cncn1)c1ccc(F)cc1F | 75 to 77
Cc1nnc2n1-c1ccc(C#CCN3C(=O)CN(C)C(=O)c4ccccc43)cc1C(c1ccccc1F)=NC2 | 179 to 182
CCOC(=O)CCCCNc1ccc2c(c1)CCC2 | 61 to 63
CNC(=O)N(C)c1ccc(Cl)c(COc2cccn3c(Br)c(C)nc23)c1Cl | 192 to 193
N#Cc1cnc2cc(/C=C/CCCCN3CCOCC3)ccc2c1Nc1ccc(Cl)cc1Cl | 139 to 140
CN1C(=O)C2(COc3cc4c(cc32)OCCO4)c2c(C(=O)Nc3ccc(F)cc3)cccc21 (stereo not given) | > 250
CC(=O)C1CCC2C3CCC4CC(O)C(F)CC4(C)C3C(=O)CC12C (stereo not given) | 174 to 178
CN1Cc2ccccc2C(=O)c2c1nc1ccc(Br)cc1c2Cl | 153 to 155
N#Cc1cccc(NC(=O)c2ccc(-n3nc(C(F)(F)F)cc3C(F)(F)F)cc2)c1 | 195 to 196
CC1(C)CCC(C)(C)c2cc(C(O)C#Cc3ccc(C(=O)O)cc3)ccc21 (stereo not given) | 146 to 147

Compound | melting point [°C]
COC1OCC[C@@H]1NC(=O)[C@H](Cc1ccccc1)NC(=O)CNC(=O)COc1ccc2c(c1)Nc1ccccc1S2 (stereo not given in full) | 203 to 204
O=C(Nc1ccc(C(=O)N2Cc3ccccc3Cc3ccccc32)cc1)c1cccc(C(F)(F)F)c1 | 190 to 191
Nc1ccccc1-c1cc2ccc(Cl)cc2[nH]c1=O | 155 to 157
CCOC(=O)c1ncn2c1CN=C(c1ccccc1Cl)c1cc(Cl)ccc1-2 | 215 to 220
COc1ccc(C(=O)CC(=O)c2ccc(O)cc2O)cc1OC | 263 to 265
O=C(Nc1cccnc1)N1CCN(c2nccc(-c3c(F)cccc3F)n2)CC1 | 185 to 186
CO[C@@H]1CN(CCCNc2nccc(=O)[nH]2)CC[C@@H]1NC(=O)c1cc(Cl)c(N)c2c1OC(C)(C)C2 | 164
c1coc(CN2CC3(COc4cc5c(cc43)OCO5)c3ccccc32)c1 (stereo not given) | 110 to 112
Cc1c(SCCCl)ccnc1CSc1nc2ccccc2[nH]1 | 178 to 180
Nc1cc(N2CCCC2)c(F)cc1[N+](=O)[O-] | 115 to 116
COC(=O)COc1ccc2cc(-c3cnc(Cc4ccccc4)o3)ccc2c1 | 236 to 238
COc1ccc(COCC(O)CO)cc1 (stereo not given) | 51 to 53
COc1ccc(S(=O)(=O)N(Cc2cccnc2)c2c(C(=O)NO)cnc3c2c(C)nn3C)cc1 | 202 to 204
NS(=O)(=O)c1cc2c(s1)S(=O)(=O)C(CCO)CN2 (stereo not given) | 158 to 160
CCOC(=O)C(C)=NNc1ccc(F)cc1F | 153 to 156
COC(=O)c1ccc2ncn(-c3ccc(OC)cc3)c2c1 | 112 to 113
CC1=Nc2c(Br)cc(Br)cc2S(=O)(=O)N1 | 287 to 289
NC(=O)c1nc(-c2cccc(O)c2)nc2c1[nH]c(=O)n2-c1ccccc1C1CCCCC1 | > 270
COc1cc2c(cc1OCc1ccccc1)CCCC(C(=O)N1CCN(C(=O)c3cc(OC)c(OC)c(OC)c3)CC1)=C2 | 140 to 142
CCn1c(=O)sc2cc(N)ccc21 | 132 to 133

Results, then the compound that gave them:

melting point [°C] | Compound
35 to 38 | CCOC(=O)Cc1cccc(NC=O)n1
200 to 202 | COC(=O)/C=C/c1ccc(/C=C/c2csc(NC(C)=O)n2)s1
> 210 | COc1cc(Br)nc2[nH]cc(-c3ccnc(N)n3)c12
234 to 236 | Cc1c(N2CCC(O)CC2)c(F)cc2c(=O)c(C(=O)O)cn(C3CC3)c12
118 to 121 | Cn1c(SCSC#N)nc2ccccc2c1=O
84 to 86 | CCc1c(Oc2ncc(C(F)(F)F)cc2Cl)nn(C(=O)NC)c1C
162 | CCCN(C)c1ccc(-c2c(Cl)c(=O)c2=O)cc1
203 to 204 | COc1cc(Nc2nc3cccc(-c4cccc(CNC(C)=O)c4)c3o2)cc(OC)c1OC
108 to 110 | COc1ccc(C(C#N)Sc2ccccn2)cc1OC (stereo not given)
240 to 243 | CCOc1cc(-c2nnc3c4ccccc4c(OCc4nc[nH]n4)nn23)no1
85 | COc1ccc(Cc2nc3c(cnn3C(CCCc3ccccc3)C(C)O)c(=O)[nH]2)cc1OC (stereo not given)
173 to 176 | COCCC1(c2ccc(O)cc2)N=CC=N1
214 to 216 | CCN(C(=O)c1cc(C(C)(C)C)c(OC(=O)c2cc(C(C)(C)C)c(O)c(C(C)(C)C)c2)c(C(C)(C)C)c1)c1ccc(C)cc1
215 to 216 | CC(C)Cn1c2c(c(=O)n(C)c1=O)C(=O)C(=Cc1cccnc1)S2
202 to 203 | O=S1OCCN1c1cc(-c2ccnc(Nc3cccc(Cl)c3)n2)ccn1 (stereo not given)
77 | C=CCN1C(=O)C(C)N(c2ccc(Oc3ccccc3)cc2)C1=S (stereo not given)
84 to 86 | CN1C(=S)COC1=Nc1cccc(C(F)(F)F)c1
105 to 107 | O=C(O)CP(=O)(O)C[C@H](Cc1ccccc1)NC(=O)c1ccccc1
131 to 138 | COc1ccc(CNc2nnc(NCCCO)c3ccc(Cl)cc23)cc1Cl
140 to 142 | O=C(O)COc1ccc(SCc2ccc(OCc3ccc(OC(F)(F)F)cc3)cc2)c2c1CCC2

melting point [°C] | Compound
134 | CCC[C@H](C)C(=O)O[C@H]1C[C@H](O)C=C2C=C[C@H](C)[C@H](CC[C@@H]3C[C@@H](O)CC(=O)O3)[C@H]21
222 to 224 | O=Cc1cc2cc3c(cc2nc1Cl)OCCO3
234 to 235 | Cc1cc(C)c2nc(C)c(NC(=O)Nc3ccc(F)cc3F)c(-c3ccccc3Cl)c2c1
225 to 227 | Cc1nc2sccn2c(=O)c1O
186 | O=C(OC(c1ccccc1)c1ccccc1)c1c(-c2ccccc2)oc2c(CCl)cccc2c1=O
75.5 to 77.5 | COC(=O)Cc1c(F)cc(O)cc1F
94 to 95 | CCc1sc2nc(C(=O)OC)cn2c1C
214 to 217 | CCOP(=O)(CC(=O)Nc1cc2c(Nc3ccc(F)c(Br)c3)ncnc2cn1)OCC
> 260 | O=C1CCC2=C1C(c1ccc(Cl)c(F)c1)C1=C(CCS1)N2 (stereo not given)
63 to 65 | CCOC(=O)C1(C(=O)NCc2ccccc2)CC(=O)N(Cc2ccccc2)C1 (stereo not given)
> 250 | N#CNC(=S)Nc1ccc(C#N)cc1
199 to 200 | CCCc1nn(C)c2c(=O)[nH]cnc12
148 | CCCCN1CCC(CNC(=O)c2cc(Cl)c(NC)n3ccnc23)CC1
185 to 187 | NS(=O)(=O)c1c(Cl)cccc1-c1ccccc1
235 to 238 | NC(=O)c1ccc(Cn2ccc(OCc3ccc(F)cc3F)c(Cl)c2=O)cc1
142 to 143 | COc1ccc2c(c1O)C(=O)O[C@@H]2[C@H]1c2c(cc3c(c2OC)OCO3)CCN1C
134 to 135 | COCOc1nn(-c2ccccc2)cc1/C=C/c1csc(-c2ccccc2C(=O)OC)n1
65 to 67 | O=C(CSc1nc[nH]n1)NC/C=C\COc1cc(CN2CCCCC2)ccn1
153 to 154 | O=C(Nc1ccc(O)cc1)OCc1ccccc1
145 to 146 | CCCCCCCCC(c1ccccc1)S(=O)(=O)NC(=O)Nc1c(C(C)C)cccc1C(C)C (stereo not given)

melting point [°C] | Compound
173 to 174 | CC1CNC(=Nc2ccccc2N2CCOCC2)N1 (stereo not given)
62 to 64 | CN(C)CCn1c2c(c3ccccc31)CCSCCC2
146 to 147 | O=C1C(=O)N(CCN2CCN(Cc3ccc(F)cc3)CC2)c2ccccc21
201 | ON=C1c2ccccc2C2CC2c2ccccc21 (stereo not given)
47 to 49 | CC(C)[C@](C)(O)C(=O)O
128 to 131 | O=C(CCCN1C(=O)c2ccccc2C1=O)Nc1nnc(SCc2ccccc2)s1
238 to 239 | O=C(O)c1cc(Br)cc2c1NCCC2C(=O)O (stereo not given)
228 to 231 | CCOC(=O)c1cnc2c(N=C3C(=O)OC(C)(C)OC3=O)cccc2c1
164 to 166 | O=c1oc(CCc2ccccc2)cc(O)c1SCc1ccccc1
185 to 187 | COc1c(C)c(C)c2c(c1C)C(C(=O)O)C(C)(C)O2 (stereo not given)
81 to 82.5 | CCCC(Cc1ccc(OCCNC(=O)c2ccc(-c3ccccn3)cc2)cc1)C(=O)O (stereo not given)
194 to 195 | COc1cc(OC)c(C2C=CCO2)cc1C=CC(=O)c1ccc(S(N)(=O)=O)cc1 (stereo not given)
139 to 141 | COc1cc2c(cc1OC)Sc1ccc(Cl)cc1C(Cl)C2 (stereo not given)
78 to 105 | CC(CC(=O)c1ccccc1)C(=O)N[C@@H](CS)C(=O)O (stereo not given in full)
168 to 170 | COc1ccnc(CCc2nc3cccnc3n2-c2ccc(OCc3ccccc3)c(F)c2)c1
35 to 37 | FC(F)(F)c1ccc(-c2cc(C(F)(F)F)cc(Br)n2)cc1
82 to 85 | COc1ccc(CCCN2C(=O)c3ccccc3C2=O)cc1OC
92 | CN(CC(F)(F)F)C(=O)COc1nc2ccccc2o1
178 | O=C(NCc1ccc(C(F)(F)F)cc1)Nc1cccc2[nH]ccc12
